# According to patent US7405238B2, “Pharmacological inducement of the fed mode for enhanced drug administration to the stomach” (priority 1999, dated 2008):
# Several values for one entry are separate records, joined by “and”; a condition that tells them apart may be missing. Equal entries are not always repeated. Peptide text beside a SMILES is read from it.
# Assays:
# female beagles [1] = test: Retention time of BaSO4 swelling tablet in stomach, dogs fasted 24 hours, Example 3; type: in vivo, dog; details: mean of five dogs fasted 24 hours
# Method: (§1) Test formulations were administered in various regimens. In some of the tests, the dogs were given an immediate release (IR) regimen in the form of a single gelatin capsule containing a test species in a selected amount. A simulated controlled release (SCR) regimen was used in other tests by administering a gelatin capsule containing a test species in a selected amount every half hour. A third regimen was a controlled release (CR) regimen, in which the test species was incorporated in a compressed tablet of POLYOX 303 and magnesium stearate. […] The barium tablets were visualized every thirty minutes by fluoroscopy until they left the stomach. The time of the last observation of the 800 mg tablet in the stomach was recorded as the retention time. The test group also included a negative control using a fasted dog with no test formulations administered, and a positive control using a dog that was fed a standard 50 g meal but no test formulations.
# (§2) Further tests were performed on a second group of dogs, consisting of five female beagles one year in age and weighing 5-7 kg each. The test protocols were the same as those in Example 1 except that the dogs were fasted for 24 hours before each test, and the test results are listed in Table II below, which lists the mean of the results observed among the five dogs as well as the range among the dogs for each test.
# Further tests were performed on the second group of dogs, consisting of five female beagles one year in age and weighing 5-7 kg each. The test protocols were the same as those in Example 2, except that the controls were replaced by a negative control consisting of AVICEL (microcrystalline cellulose, FMC Corporation, Philadelphia, Pa., USA), administered as a simulated controlled release at 10 mg every half hour. The test results are listed in Table III below, which lists the mean of the results observed among the five dogs as well as the range among the dogs for each test.
# female beagles [2] = test: Retention time of BaSO4 swelling tablet in stomach, dogs fasted 24 hours, Example 2; type: in vivo, dog; details: mean of five dogs fasted 24 hours
# Method: (§3) Four dogs, all male beagles ranging in age from 10 months to 21 months and weighing from 6 kg to 10 kg each, were housed individually and each was fed a 1:1 (weight ratio) wet:dry mixture of food weighing 300 g once daily at 3:00 p.m. Water was provided ad libitum. The dogs were fasted for 6-8 hours overnight, preceded by the removal of feces and any uneaten food.
# as §1, §2
# dogs = details: administered in excess of 1 g; cited from earlier work
# male beagles = test: Retention time of BaSO4 swelling tablet in stomach, dogs, Example 1; type: in vivo, dog; details: 7.94 × 19.05 mm BaSO4 tablet, mean of four dogs
# Method: as §3, §1
# The test results in terms of the retention times in hours are shown in Table I, which lists the means of the results observed among the four dogs as well as the range among the dogs for each test.
compound,measurement,setting,value
COC(=O)[C@H](Cc1ccccc1)NC(=O)[C@@H](N)CC(=O)O [Aspartame] (H-Asp-Phe-OMe),Retention Time (h) Mean,"female beagles [1]; 200 mg, IR",3.8 ± 2.3 h
"CCCCCCCCCCCCCCCC[n+]1ccccc1.[Cl-] [Cetylpyridinium chloride, reference compound]",Retention Time (h) Mean,"female beagles [1]; 5 mg, IR",4.0 ± 2.8 h
same,Retention Time (h) Mean,"female beagles [1]; 20 mg, IR",4.45 ± 2.6 h
same,Retention Time (h) Mean,"female beagles [2]; 20 mg, IR",4.5 ± 2.6 h
same,Retention Time (h) Mean,"female beagles [2]; 50 mg, IR",4.0 ± 1.3 h
same,Retention Time (h) Mean,"female beagles [2]; 100 mg, IR",3.2 ± 0.9 h
N=C(N)NCCC[C@H](N)C(=O)O [L-Arginine],effect on gastric emptying,dogs,slowed gastric emptying
same,Retention Time (h) Mean,"male beagles; 300 mg, CR (POLYOX 303 tablet)",3.6 ± 1.6 h
same,Retention Time (h) Mean,"male beagles; 400 mg, IR",1.6 ± 0.2 h
"CN(C)C(=O)C(CCN1CCC(O)(c2ccc(Cl)cc2)CC1)(c1ccccc1)c1ccccc1 [Loperamide, 4-(p-chlorophenyl)-4-hydroxy-N,N-dimethyl-α,α-diphenyl-1-piperidinebutyramide, reference compound]",Retention Time (h) Mean,"male beagles; 0.1 mg, IR",2.5 ± 1.3 h
"CCCCC(CC)COC(=O)CC(C(=O)OCC(CC)CCCC)S(=O)(=O)O (stereo not drawn) [Na docusate, reference compound]",Retention Time (h) Mean,"male beagles; 200 mg, IR",2.6 ± 1.4 h
NC(Cc1c[nH]c2ccccc12)C(=O)NC(Cc1c[nH]c2ccccc12)C(=O)O (stereo not drawn) [Trp-Trp],Retention Time (h) Mean,"male beagles; 200 mg, IR",3.1 ± 3.9 h and 2.1 ± 1.8 h
same,Retention Time (h) Mean,"male beagles; SCR, 20 mg every thirty minutes",2.8 ± 0.3 h
same,Retention Time (h) Mean,"female beagles [1]; SCR, 0.5 mg every thirty minutes",4.6 ± 1.7 h
same,Retention Time (h) Mean,"female beagles [1]; SCR, 2 mg every thirty minutes",4.2 ± 1.1 h
same,Retention Time (h) Mean,"female beagles [2]; SCR, 5 mg every thirty minutes",4.6 ± 1.5 h
same,Retention Time (h) Mean,"female beagles [2]; SCR, 10 mg every thirty minutes",2.4 ± 1.8 h
same,Retention Time (h) Mean,"female beagles [2]; SCR, 40 mg every thirty minutes",3.4 ± 1.9 h
"OC[C@@H](O)[C@H](O)[C@@H](O)CO [Xylitol, CH2OH—(CHOH)3—CH2OH]",Retention Time (h) Mean,"male beagles; 600 mg, IR",3.1 ± 1.5 h
N[C@@H](Cc1c[nH]c2ccccc12)C(=O)O [tryptophan],effect on gastric emptying,dogs,slowed gastric emptying
O=C(O)CCCCC1CCSS1 (stereo not drawn) [α-Lipoic acid],Retention Time (h) Mean,"male beagles; 150 mg, IR",2.8 ± 1.6 h
glycine,effect on gastric emptying,dogs,slowed gastric emptying
β-Casomorphin: peptide released from β-casein; bovine sequence Tyr-Pro-Phe-Pro-Gly-Pro-Ile; species tested not stated (YPFPGPI; printed: Tyr-Pro-Phe-Pro-Gly-Pro-Ile),Retention Time (h) Mean,"male beagles; 25 mg, IR",2.6 ± 1.1 h
same,Retention Time (h) Mean,"female beagles [1]; 10 mg, IR",3.5 ± 2.1 h
